Where a SMILES comes first, the peptide text is derived from it. Bridges are numbered along the chain shown (N, C = ends). [ ]: non-standard residue; d: D form. S5 = C=CCCC[C@](C)(N)C(=O)O; Nle = CCCC[C@H](N)C(=O)O
Key:
circular dichroism = assay: circular dichroism; design: unit not given here; conditions: 20 mM phosphoric acid; pH 2.0; 5 °C; 0.05 mg/mL
Figure 2 = assay: Figure 2; design: AUCall: concentration or dose not given beside the values; conditions: for C0 / half-life / MRT: Sprague-Dawley, rat, plasma, iv; for MRT: read-out: MRTinf_obs
Experimental: Table printed on a drawing sheet, Figure 2
Footnotes: 2 mg/mL iv bolus in Sprague-Dawley rats (10 mg/kg) / * 0.6 mg/mL iv bolus in Sprague-Dawley rats (3 mg/kg)
The patent's description of the figure: FIG. 2 lists the in vivo half-lives of peptidomimetic macrocycles of the invention. Half-lives were measured in Sprague Dawley rats after one intravenous bolus injection at 0.6 mg/mL or 2 mg/mL of each unlabeled peptidomimetic macrocycle at a 3 mg/kg or 10 mg/kg dose, respectively. Three animals were used per compound and concentrations were determined by mass-spectrometric analysis of blood levels (plasma).
First reader's note: An asterisk before the peptide name marks dosing at 3 mg/kg (0.6 mg/mL) instead of 10 mg/kg (2 mg/mL).

Compound | helicity (circular dichroism) | AUCall (Figure 2) | Cl_obs (Figure 2) | C0 (Figure 2) | half-life (Figure 2) | MRT (Figure 2)
CCCC[C@H](NC(=O)[C@H](CO)NC(=O)[C@H](CC(=O)O)NC(=O)CNC(=O)[C@@H](NC(=O)[C@H](CCC(N)=O)NC(=O)[C@H](C)NC(=O)[C@H](CC(C)C)NC(=O)[C@H](Cc1c[nH]cn1)NC(=O)[C@H](CCCNC(=N)N)NC(=O)[C@H](C)NC(=O)[C@@H](NC(=O)[C@H](CC(N)=O)NC(=O)[C@H](CCCNC(=N)N)NC(=O)[C@@H](NC(=O)[C@@H](NC(=O)[C@H](CC(=O)O)NC(C)=O)[C@@H](C)CC)[C@@H](C)CC)[C@@H](C)CC)C(C)C)C(=O)N[C@@H](CC(=O)O)C(=O)N[C@@H](CCCNC(=N)N)C(=O)N[C@@H](CO)C(=O)N[C@H](C(N)=O)[C@@H](C)CC [*SP11] (Ac-DIIRNIARHLAQVGDS[Nle]DRSI-NH2) | -1890 | 1136 ng·h/mL | 45.53 mL/min/kg | 1080 ng/mL | 1.3 h | 1.6 h
CCCC[C@H](NC(=O)[C@]1(C)CCCC=CCCCC2(CCCC=CCCC[C@@](C)(NC(=O)[C@H](C)NC(=O)[C@@H](NC(=O)[C@H](CC(N)=O)NC(=O)[C@H](CCCNC(=N)N)NC(=O)[C@@H](NC(=O)[C@@H](NC(=O)[C@H](CC(=O)O)NC(C)=O)[C@@H](C)CC)[C@@H](C)CC)[C@@H](C)CC)C(=O)N[C@@H](Cc3c[nH]cn3)C(=O)N[C@@H](CC(C)C)C(=O)N[C@@H](C)C(=O)N2)C(=O)N[C@@H](C(C)C)C(=O)NCC(=O)N[C@@H](CC(=O)O)C(=O)N1)C(=O)N[C@@H](CC(=O)O)C(=O)N[C@@H](CCCNC(=N)N)C(=O)N[C@@H](CO)C(=O)N[C@H](C(N)=O)[C@@H](C)CC (stereo partly shown) [*SP13] | -5450 | 82965 ng·h/mL | 0.44 mL/min/kg | 6100 ng/mL | 9.5 h | 13.2 h
CCCC[C@H](NC(=O)[C@@]1(C)CCCC=CCCCC2(CCCC=CCCC[C@](C)(NC(=O)[C@H](C)NC(=O)[C@@H](NC(=O)[C@H](CC(N)=O)NC(=O)[C@H](CCCNC(=N)N)NC(=O)[C@@H](NC(=O)[C@@H](NC(=O)[C@H](CC(=O)O)NC(C)=O)[C@@H](C)CC)[C@@H](C)CC)[C@@H](C)CC)C(=O)N[C@@H](Cc3c[nH]cn3)C(=O)N[C@@H](CC(C)C)C(=O)N[C@@H](C)C(=O)N2)C(=O)N[C@@H](C(C)C)C(=O)NCC(=O)N[C@@H](CC(=O)O)C(=O)N1)C(=O)N[C@@H](CC(=O)O)C(=O)N[C@@H](CCCNC(=N)N)C(=O)N[C@@H](CO)C(=O)N[C@H](C(N)=O)[C@@H](C)CC (stereo partly shown) [*SP14] | -5840 | 74344 ng·h/mL | 0.727 mL/min/kg | 7200 ng/mL | 6.7 h | 8.7 h
CC[C@H](C)[C@H](NC(C)=O)C(=O)N[C@@H](Cc1c[nH]c2ccccc12)C(=O)N[C@H](C(=O)N[C@@H](C)C(=O)N[C@@H](CCC(N)=O)C(=O)N[C@@H](C)C(=O)N[C@@H](CC(C)C)C(=O)N[C@@H](CCCNC(=N)N)C(=O)N[C@@H](CCCNC(=N)N)C(=O)N[C@H](C(=O)NCC(=O)N[C@@H](CC(=O)O)C(=O)N[C@@H](CCC(=O)O)C(=O)N[C@@H](Cc1ccccc1)C(=O)N[C@@H](CC(N)=O)C(=O)N[C@@H](C)C(=O)N[C@@H](Cc1ccc(O)cc1)C(=O)N[C@@H](Cc1ccc(O)cc1)C(=O)N[C@@H](C)C(=O)N[C@@H](CCCNC(=N)N)C(=O)N[C@@H](CCCNC(=N)N)C(N)=O)[C@@H](C)CC)[C@@H](C)CC [*SP15] | -2000 | 8430 ng·h/mL | 7.467 mL/min/kg | 48000 ng/mL | 0.4 h | 0.2 h
CC[C@H](C)[C@H](NC(C)=O)C(=O)N[C@@]1(C)CCCC=CCCC[C@@](C)(C(=O)N[C@@H](CC(C)C)C(=O)N[C@@H](CCCNC(=N)N)C(=O)N[C@@]2(C)CCCC=CCCC[C@@](C)(C(=O)N[C@@H](Cc3ccccc3)C(=O)N[C@@H](CC(N)=O)C(=O)N[C@@H](C)C(=O)N[C@@H](Cc3ccc(O)cc3)C(=O)N[C@@H](Cc3ccc(O)cc3)C(=O)N[C@@H](C)C(=O)N[C@@H](CCCNC(=N)N)C(=O)N[C@@H](CCCNC(=N)N)C(N)=O)NC(=O)[C@H](CC(=O)O)NC(=O)CNC(=O)[C@H]([C@@H](C)CC)NC2=O)NC(=O)[C@H](CCC(N)=O)NC(=O)[C@H](C)NC(=O)[C@H]([C@@H](C)CC)NC1=O [*SP16] | -14400 | 125889 ng·h/mL | 0.4 mL/min/kg | 22900 ng/mL | 4.5 h | 4.4 h
CC(=O)N[C@@H](CCC(N)=O)C(=O)N[C@@H](CO)C(=O)N[C@@]1(C)CCCC=CCCCC2(CCCC=CCCCCCC[C@@](C)(C(=O)N[C@@H](CCC(N)=O)C(=O)N[C@@H](CC(N)=O)C(N)=O)NC(=O)[C@H](CC(C)C)NC(=O)[C@H](CC(C)C)NC(=O)[C@H](CCCNC(=N)N)NC(=O)[C@H](Cc3c[nH]c4ccccc34)NC(=O)[C@H](CC(C)C)NC(=O)[C@H](CC(N)=O)NC2=O)NC(=O)[C@H](Cc2ccccc2)NC(=O)[C@H]([C@@H](C)O)NC(=O)[C@H](CCC(N)=O)NC1=O (stereo partly shown) [*SP17] | -12300 | 102958 ng·h/mL | 0.995 mL/min/kg | 72800 ng/mL | 3.3 h | 3 h
CC[C@H](C)[C@H](NC(C)=O)C(=O)N[C@@H](Cc1c[nH]c2ccccc12)C(=O)N[C@H](C(=O)N[C@@H](C)C(=O)N[C@]1(C)CCCC=CCCCC2(CCCC=CCCC[C@@](C)(C(=O)N[C@@H](Cc3ccccc3)C(=O)N[C@@H](CC(N)=O)C(=O)N[C@@H](C)C(=O)N[C@@H](Cc3ccc(O)cc3)C(=O)N[C@@H](Cc3ccc(O)cc3)C(=O)N[C@@H](C)C(=O)N[C@@H](CCCNC(=N)N)C(=O)N[C@@H](CCCNC(=N)N)C(N)=O)NC(=O)[C@H](CC(=O)O)NC(=O)CNC(=O)[C@H]([C@@H](C)CC)NC2=O)NC(=O)[C@H](CCCNC(=N)N)NC(=O)[C@H](CC(C)C)NC(=O)[C@H](C)NC1=O)[C@@H](C)CC (stereo partly shown) [*SP20] | -19200 | 15000 ng·h/mL | 3.017 mL/min/kg | 1950 ng/mL | 10.8 h | 14.1 h
CC[C@H](C)[C@H](NC(C)=O)C(=O)N[C@@H](Cc1c[nH]c2ccccc12)C(=O)N[C@H](C(=O)N[C@@H](C)C(=O)N[C@@]1(C)CCCC=CCCCC2(CCCC=CCCCCCC[C@@](C)(C(=O)N[C@@H](Cc3ccc(O)cc3)C(=O)N[C@@H](Cc3ccc(O)cc3)C(=O)N[C@@H](C)C(=O)N[C@@H](CCCNC(=N)N)C(=O)N[C@@H](CCCNC(=N)N)C(N)=O)NC(=O)[C@H](CC(N)=O)NC(=O)[C@H](Cc3ccccc3)NC(=O)[C@H](CCC(=O)O)NC(=O)[C@H](CC(=O)O)NC(=O)CNC(=O)[C@H]([C@@H](C)CC)NC2=O)NC(=O)[C@H](CCCNC(=N)N)NC(=O)[C@H](CC(C)C)NC(=O)[C@H](C)NC1=O)[C@@H](C)CC (stereo partly shown) [*SP21] | -11200 | 7000 ng·h/mL | 6.977 mL/min/kg | 1450 ng/mL | 5.7 h | 6.6 h
CCCC[C@H](NC(=O)[C@]1(C)CCCC=CCCC[C@](C)(NC(=O)[C@H](C)NC(=O)[C@H](CC(C)C)NC(=O)[C@H](Cc2c[nH]cn2)NC(=O)[C@H](CCCNC(=N)N)NC(=O)[C@H](C)NC(=O)[C@@H](NC(=O)[C@H](CC(N)=O)NC(=O)[C@H](CCCNC(=N)N)NC(=O)[C@@H](NC(=O)[C@@H](NC(=O)[C@H](CC(=O)O)NC(C)=O)[C@@H](C)CC)[C@@H](C)CC)[C@@H](C)CC)C(=O)N[C@@H](C(C)C)C(=O)NCC(=O)N[C@@H](CC(=O)O)C(=O)N1)C(=O)N[C@@H](CC(=O)O)C(=O)N[C@@H](CCCNC(=N)N)C(=O)N[C@@H](CO)C(=O)N[C@H](C(N)=O)[C@@H](C)CC [SP1] (Ac-DIIRNIARHLA[S5]VGD[S5][Nle]DRSI-NH2; staple 12-16) | -8150 | 268275 ng·h/mL | 0.737 mL/min/kg | 154000 ng/mL |  | 
CC[C@H](C)[C@H](NC(C)=O)C(=O)N[C@@H](Cc1c[nH]c2ccccc12)C(=O)N[C@H](C(=O)N[C@@H](C)C(=O)N[C@@H](CCC(N)=O)C(=O)N[C@@H](C)C(=O)N[C@@H](CC(C)C)C(=O)N[C@@H](CCCNC(=N)N)C(=O)N[C@@]1(C)CCCC=CCCC[C@@](C)(C(=O)N[C@@H](Cc2ccccc2)C(=O)N[C@@H](CC(N)=O)C(=O)N[C@@H](C)C(=O)N[C@@H](Cc2ccc(O)cc2)C(=O)N[C@@H](Cc2ccc(O)cc2)C(=O)N[C@@H](C)C(=O)N[C@@H](CCCNC(=N)N)C(=O)N[C@@H](CCCNC(=N)N)C(N)=O)NC(=O)[C@H](CC(=O)O)NC(=O)CNC(=O)[C@H]([C@@H](C)CC)NC1=O)[C@@H](C)CC [SP9] | -14900 | 124448 ng·h/mL | 0.83 mL/min/kg | 159000 ng/mL | 7.3 h | 4.5 h
Ac-QSQQTFSNLWRLLPQN-NH2 [*SP22] | -646 | 75 ng·h/mL | 700 mL/min/kg | 15100 ng/mL | < 0.1 h | < 0.1 h
